What was measured:
[1] = tested on: HeLa cells; test: high throughput microscopy of HeLa cells; type: cell-based; conditions: single-compound assays
Text: The cellular basis of these phenotypes has not been investigated. No phenotypes consistent with mitotic arrest were observed.

[2] = molecular target: T1, Ure2p (Saccharomyces cerevisiae, UniProt P23202); test: PUT1-lacZ reporter β-galactosidase assay; type: cell-based; conditions: yeast in YPD, 30 °C, 60-90 min; rapamycin 50 nM
T1 construct: endogenous in cells; host or cells: yeast strain DB26-3A (MAT-a ura3-52 ade2 PUT1-lacZ)
T1 sequence (P23202 1-354): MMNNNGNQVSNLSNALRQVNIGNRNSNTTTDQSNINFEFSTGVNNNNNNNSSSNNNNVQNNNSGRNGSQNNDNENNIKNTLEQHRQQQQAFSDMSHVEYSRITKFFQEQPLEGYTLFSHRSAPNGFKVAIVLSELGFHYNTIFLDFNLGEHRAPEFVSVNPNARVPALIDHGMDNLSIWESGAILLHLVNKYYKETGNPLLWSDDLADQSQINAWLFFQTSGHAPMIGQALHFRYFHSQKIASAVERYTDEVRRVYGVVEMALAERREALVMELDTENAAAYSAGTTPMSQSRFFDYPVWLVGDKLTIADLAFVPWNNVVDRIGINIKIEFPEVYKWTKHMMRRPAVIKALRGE
Protocol: (§1) FIG. 24 depicts studies in vivo, dose response and structure-activity relationships of uretupamine. (A) A yeast strain (DB26-3A) growing in YPD medium expressing a PUT1-lacZ reporter was treated with 50 nM rapamycin or with a compound that had been detected to bind to labelled Ure2p on a small-molecule microarray. After 90 min of treatment at 30° C., a standard liquid b-galactosidase assay was performed. Data are expressed in fold Miller units compared with treatment with 50 nM rapamycin for 90 minutes. DB26-3A (MAT-a ura3-52 ade2 PUT1-lacZ) was a gift from M. Brandriss. Vehicle: samples treated with N,N-dimethylformamide (DMF), the vehicle into which library compounds were dissolved (B): Uretupamine A was resynthesized and tested in the b-galactosidase assay by using the PUT1-lacZ reporter at the concentrations indicated for 60 min at 30 C in YPD medium. (C) Compounds derived from the uretupamine A structure were synthesized to explore structure-activity relationships. Listed are b-galactosidase assay results of treatment with each compound at 100 μM (asterisk designates 50 μM) for 60 min at 30 C in YPD medium. Data are in percentage Miller units compared with treating with 50 nM rapamycin for 60 min. […] (D) Binding of uretupamine B to Ure2p was determined by using surface plasmon resonance (BIAcore 3000) to have a dissociation constant of 7.5 μM. […]

[3] = molecular target: T1, Ure2p; test: surface plasmon resonance (BIAcore 3000) binding to immobilized Ure2p; set-up: species or system yeast; conditions: PBS/Tween-20 with 10% DMF, read-out: equilibrium dissociation constant for binding to Ure2p
Protocol: as §1

[4] = tested on: Ure2p-controlled genes; test: whole-genome transcription profiling of yeast strains; type: cell-based; conditions: 100 μM, 30 min
Protocol: FIG. 25 depicts transcription profiling of treatment with uretupamine. (A) The left microarray corresponds to wild-type cells (PM38) treated with vehicle (DMF) versus wild type (w.t.) cells treated for 30 min with uretupamine A at 100 μM. The right microarray corresponds to ure2Δ cells (PH2) treated with vehicle versus ure2Δ cells treated for 30 min with uretupamine A at 100 μM. Profiles were obtained as described (Hardwick et al. Proc. Natl. Acad. Sci. USA 1999, 96, 14866-14870). At the right are shown specific gene inductions of some URE2-dependent genes from the microarrays. PM38 (MATaleu2-3,112 ura3-52), PM71 (MA4Taleu2-3, 112 ura3-52 gln3Δ5::LEU2), MS221 (MATaura3-52 nil1::hisG), PH2 (MATaleu2-3, 112 ura3-52 ure2Δ12::URA3) were gifts from B. Magasanik and M. Brandriss. (B) The transcription profiles of wild-type cells (PM38), ure2Δ cells (PH2), gln3Δ cells (PM71) and nil1Δ cells (MS221) grown in YPD medium treated for 30 min with 100 μM uretupamine B were obtained. The geometric means of gene inductions of the sets listed are shown. (C) An analysis was performed based on treating individual profiles as high-dimensional vectors and then examining the ratios of their magnitudes as a measure of relative activity (Shamji et al. Curr. Biol. 2000, 10, 1574-1581; Kuruvilla et al. Genome Biol. 2002, 3(3), 0011.1-0011.11).
To determine the precise effects and specificity of uretupamine, whole-genome transcription profiling was used in wild-type cells as well as an otherwise isogenic ure2D strain-a ‘targetless’ strain (Marton et al. Nature Med 1998, 4, 1293-1301). […] The expression of other genes (including GAP1, MEP2, AGP1, BAT2 and DAL5) controlled by Ure2p was essentially unchanged (FIG. 25A,B).

[5] = solubility in yeast medium; type: physicochemical; conditions: higher concentrations
[6] = molecular target: T2, HDAC1 (Homo sapiens, UniProt Q13547); test: HDAC assay, [3H]acetate-incorporated histones with immunoprecipitated FLAG-tagged HDAC1; type: biochemical; conditions: calculated IC50, data in duplicate, at least two experiments; read-out: IC50 against HDAC1
T2 construct: made in house; host or cells: TAg-Jurkat cells, transient transfection, then immunoprecipitation
Protocol: (§2) Cell culture and Transfections. TAg-Jurkat cells were transfected by electroporation with 5 μg of FLAG-epitope-tagged pBJ5 constructs (as described in ref. 5c) for expression of recombinant proteins. Cells were harvested 48 h posttransfection.
HDAC assays. [^3H]Acetate-incorporated histones were isolated from butyrate-treated HeLa cells by hydroxyapatite chromatography (as described in Tong, et al. Nature 1997, 395, 917-921.) Immunoprecipitates were incubated with 1.4 μg (10,000 dpm) histones for 3 h at 37° C. HDAC activity was determined by scintillation counting of the ethyl acetate-soluble [^3H]acetic acid (as described in Taunton, et al., Science 1996, 272, 408-411). Compounds were added in DMSO such that final assay concentrations were 1% DMSO. IC50s were calculated using Prism 3.0 software. Curve fitting was done without constraints using the program's Sigmoidal-Dose Response parameters. All data points were acquired in duplicate and IC50s are calculated from the composite results of at least two separate experiments.

[7] = molecular target: T3, HDAC6 (Homo sapiens, UniProt Q9UBN7); test: HDAC assay, [3H]acetate-incorporated histones with immunoprecipitated FLAG-tagged HDAC6 (HDAC6F); type: biochemical; set-up: made in house; host or cells: TAg Jurkat cells, transient transfection, anti-FLAG M2 immunoprecipitation; conditions: calculated IC50, data in duplicate, at least two experiments; read-out: IC50 against HDAC6
T3 sequence (Q9UBN7 1-1215): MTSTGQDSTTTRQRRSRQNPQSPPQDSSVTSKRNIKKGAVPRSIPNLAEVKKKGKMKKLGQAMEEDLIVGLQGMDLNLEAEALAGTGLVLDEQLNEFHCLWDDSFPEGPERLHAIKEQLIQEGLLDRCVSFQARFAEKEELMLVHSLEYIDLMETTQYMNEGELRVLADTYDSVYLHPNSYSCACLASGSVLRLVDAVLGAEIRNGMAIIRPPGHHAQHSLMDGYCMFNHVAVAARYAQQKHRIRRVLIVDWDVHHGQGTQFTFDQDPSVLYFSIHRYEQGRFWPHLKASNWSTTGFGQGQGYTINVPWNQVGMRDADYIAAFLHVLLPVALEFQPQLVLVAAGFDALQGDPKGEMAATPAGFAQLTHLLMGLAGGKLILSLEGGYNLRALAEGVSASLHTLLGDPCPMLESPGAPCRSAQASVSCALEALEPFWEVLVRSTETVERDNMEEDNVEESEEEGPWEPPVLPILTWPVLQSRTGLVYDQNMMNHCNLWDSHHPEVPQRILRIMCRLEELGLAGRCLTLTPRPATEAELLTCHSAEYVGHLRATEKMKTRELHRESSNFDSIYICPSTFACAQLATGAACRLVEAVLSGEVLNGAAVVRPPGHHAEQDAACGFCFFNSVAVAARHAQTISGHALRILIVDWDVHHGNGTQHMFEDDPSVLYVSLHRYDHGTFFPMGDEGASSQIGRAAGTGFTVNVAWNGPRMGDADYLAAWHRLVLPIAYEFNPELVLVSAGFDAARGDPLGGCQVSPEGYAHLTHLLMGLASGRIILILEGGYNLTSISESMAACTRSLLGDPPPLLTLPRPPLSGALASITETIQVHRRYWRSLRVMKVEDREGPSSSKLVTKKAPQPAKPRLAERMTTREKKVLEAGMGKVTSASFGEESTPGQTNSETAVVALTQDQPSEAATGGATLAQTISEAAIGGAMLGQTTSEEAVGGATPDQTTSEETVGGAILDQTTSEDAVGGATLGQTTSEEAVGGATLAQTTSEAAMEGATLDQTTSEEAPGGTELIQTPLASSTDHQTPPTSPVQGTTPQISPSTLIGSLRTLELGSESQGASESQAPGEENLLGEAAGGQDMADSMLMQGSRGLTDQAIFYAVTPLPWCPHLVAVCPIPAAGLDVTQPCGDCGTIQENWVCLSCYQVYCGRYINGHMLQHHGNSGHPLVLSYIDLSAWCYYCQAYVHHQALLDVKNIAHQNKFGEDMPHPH
Protocol: as §2
HDAC assays. […] Compounds were added in DMSO such that final assay concentrations were 1% DMSO. IC50s were calculated using Prism 3.0 software. Curve fitting was done without constraints using the program's Sigmoidal-Dose Response parameters. All data points were acquired in duplicate and IC50s are calculated from the composite results of at least two separate experiments.
Tubulin and MAPs were isolated from bovine brain as described [See http://mitchison.med.harvard.edu/protocols/tubprep.html]. Whole brain and fractions from phosphocellulose chromatography were blotted for HDAC6 and acetylated α-tubulin. Cultured hippocampal neurons from dissociated 1-day old rat brains were transfected with an enhanced green fluorescent protein (EGFP)-actin construct at 4-5 days using the calcium phosphate method [E. N. Star, D. J. Kwiatkowski and V. N. Murthy, Nat. Neurosci. […] K. Miranti and M. E. Greenberg, J. Neurosci. […] Transfected cultures were allowed to grow for at least 48 h before the addition of experimental compounds.
[^3H]Acetate-incorporated histones were isolated from butyrate-treated HeLa cells as described [J. Taunton, C. […] Immunoprecipitates were incubated with acetylated histones and HDAC activity determined by scintillation counting as described [J. Taunton, C. […] TDAC assays were performed with immunoprecipitates using MAP-stabilized microtubules polymerized from MAP-rich tubulin fraction as described [C. […] Reactions were incubated (2 h) at 37° C., then incubated on ice (15 min).

T2 sequence (Q13547 whole entry): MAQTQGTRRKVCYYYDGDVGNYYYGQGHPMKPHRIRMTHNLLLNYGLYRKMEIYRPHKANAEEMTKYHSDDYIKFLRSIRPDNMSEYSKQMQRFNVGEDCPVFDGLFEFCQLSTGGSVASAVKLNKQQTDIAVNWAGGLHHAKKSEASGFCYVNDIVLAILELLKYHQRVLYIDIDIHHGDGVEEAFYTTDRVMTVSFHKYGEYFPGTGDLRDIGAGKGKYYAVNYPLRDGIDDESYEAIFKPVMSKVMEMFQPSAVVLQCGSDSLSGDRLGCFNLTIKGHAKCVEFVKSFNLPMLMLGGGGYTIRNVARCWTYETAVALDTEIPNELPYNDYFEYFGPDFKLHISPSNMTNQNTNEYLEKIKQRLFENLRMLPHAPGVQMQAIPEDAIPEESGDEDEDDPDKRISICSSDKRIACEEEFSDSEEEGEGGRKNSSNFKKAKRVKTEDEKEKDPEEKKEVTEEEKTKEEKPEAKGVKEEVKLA

IC50 [6] [µM] | IC50 [7] [µM] | SMILES | phenotype in HeLa cells by microscopy [1] | activation of PUT1-lacZ reporter [2] | Kd [3] [µM] | gene induction in ure2Δ strain [4] | gene induction in wild-type cells [4] | solubility in yeast medium [5] | gene induction in gln3Δ strain [4] | gene induction in nil1Δ strain [4]
 |  | O=S(=O)(NCc1ccc(C2O[C@H](CSc3ccc(O)cc3)C[C@H](c3ccc(CO)cc3)O2)cc1)c1ccccc1 (mixture of isomers) [compound 12, (±)-N-[[4-(4R,6S)-4-[4-(hydroxymethyl)phenyl]-6-[[4-hydroxyphenyl)thio]methyl]-1,3-dioxan-2-yl]phenyl]methyl-benzenesulfonamide] | altered actin staining phenotype |  |  |  |  |  |  | 
 |  | NCc1ccc([C@@H]2O[C@H](CSc3nc(-c4ccccc4)c(-c4ccccc4)o3)[C@@H](c3ccccc3)[C@H](c3ccc(CO)cc3)O2)cc1 (relative stereo) [uretupamine A] |  | gave a concentration dependent dose response that at higher concentrations approached the levels of reporter gene activation induced by rapamycin | 18.1 | little or no effect on either set of genes | upregulated only a subset of genes | poor solubility at higher concentrations in yeast medium |  | 
 |  | NCc1ccc([C@@H]2O[C@H](CSc3nc(-c4ccccc4)c(-c4ccccc4)o3)C[C@H](c3ccc(CO)cc3)O2)cc1 (relative stereo) [uretupamine B] |  | more potent than uretupamine A | 7.5 | little or no effect on either set of genes | upregulated only a subset of genes | more soluble derivative | deleting GLN3 had little effect on the actions of uretupamine | deleting NIL1 abrogated its actions
> 50 | > 50 | Cc1ccc(S(=O)(=O)N[C@@H](Cc2ccccc2)C(=O)Nc2cccc(C3O[C@H](CN4CCC(O)(c5ccc(Cl)cc5)CC4)[C@H](C)[C@H](c4ccc(CO)cc4)O3)c2)cc1 (stereo partly shown) [compound 11] | cell detachment |  |  |  |  |  |  | 
